Values quoted from earlier work as cited in patent US20240423897A1, “LONGEVITY SERUM” (Wellbeam Consumer Health Intermediate, LLC, priority 2023, published 2024).

System: skin
Conditions: topical application

C=C[C@@](C)(/C=C/c1ccc(O)cc1)CCC=C(C)C [bakuchiol]
effect on lines and wrinkles, pigmentation, elasticity, firmness, and photo-damage: significant improvement
irritating effect on the skin: no irritating effect
